Assay results published in patent publication US11225507B2, “Conformation switchable antimicrobial peptides and methods of using the same” (priority 2017, dated 2022).

Experiments:
[1] = Circular dichroism (CD) secondary structure of polypeptides at different pH; assay type: physicochemical; details: pH 7.4 or 3.0
Procedure: The secondary structure of the polypeptides at different pH value was then investigated by circular dichroism (CD). […] Distortion of helical conformation was noted when the pH was adjusted back to neutral (FIG. 1C).
The MALLS detector was calibrated using pure toluene and can be used for the determination of the absolute molecular weights (MWs). The MWs of polymers were determined based on the dn/dc value of each polymer sample calculated offline by using the internal calibration system processed by the ASTRA V software (version 5.1.7.3, Wyatt Technology, Santa Barbara, Calif., USA). Circular dichroism (CD) measurements were carried out on a JASCO J-815 CD spectrometer. The polymer samples were prepared at concentrations of 4.4 μM. The solution was placed in a quartz cell with a path length of 0.10 cm. The zeta-potential of polypeptides was evaluated by Malvern Zetasizer. Infrared spectra were recorded on a Perkin Elmer 100 serial FTIR spectrophotometer calibrated with polystyrene film. Lyophilization was performed on a FreeZonelyophilizer (Labconco, Kansas City, Mo., USA). UV light was generated from an OmiCure S1000 UV lamp (EXFO, Mississauga, Canada).

H. pylori SS1 [2] = test: H. pylori killing kinetics at various pHs (CFU counting, 1 h); assay type: cell-based, Helicobacter pylori
Procedure: H. pylori killing kinetics at various pHs. The killing kinetics of polypeptides were measured against H. pylori by counting the colony forming units (CFU) of alive bacteria with agar plating. The polypeptides at various concentrations were dissolved in the Tris-HC buffer at various pHs (pH 7.4, 4.0, 3.0). H. pylori were then collected and dispersed in the BB medium supplied with fresh urea (10 mM) and 10% FBS at different pHs (pH 7.4, 4.0, 3.0). The optical density at 600 nm of the bacteria were fixed at 0.1. The bacteria were then incubated with the polypeptides solution at corresponding pH in the incubator supplied with 10% CO2 at 37° C. Samples were taken for a series of ten-fold dilutions, and plated out in BB agar plates with 10% FBS and vancomycin (pH 7.4) after 1 h incubation. The plates were incubated for 72 h in the incubator and the bacteria were counted for CFU. Bacteria incubated with Tris-HCl buffer only at corresponding pH were served as 100% survival. Survival rate (%)=CFU of bacteria treated with polypeptides/CFU of bacteria treated with buffer×100%. The killing kinetics of antibiotics (OAC, omeprazole, amoxicillin, clarithromycin) against H. pylori were determined with a similar procedure. The antibiotics at various concentrations were dissolved in the Tris-HCl buffer at pH 7.4, or 3.0, and were then incubated with H. pylori in BB medium supplied with fresh urea (10 mM) and 10% FBS at corresponding pH in the incubator. After 1 h incubation, the bacteria were collected by centrifuge at 10,000 rcf for 5 min and washed with fresh BB medium. Samples were then taken for a series of ten-fold dilutions, and plated out in BB agar plates with 10% FBS and vancomycin. The plates were incubated for 72 h in the incubator and the bacteria were counted for CFU.

[3] = Liposome dye leakage assay (ANTS/DPX efflux)
Procedure: Liposome dye leakage assay. ANTS (12.5 mM) and DPX (45 mM) were dissolved in Tris buffer (pH=7.4). To a clean round-bottom flask, appropriate volumes of lipid stocks were added to make up 1 mL of CHCl3 (3:1 POPE (1-palmitoyl-2-oleoyl-sn-glycero-3-phosphoethanolamine)/POPG (1-palmitoyl-2-oleoyl-sn-glycero-3-phospho-(1′-rac-glycerol) (sodium salt)) vesicles, POPE (130 μL, 25 mg/mL CHCl3) and POPG (115 μL, 10 mg/mL CHCl3) were used). The solvent was removed by a stream of nitrogen gas to obtain a thin lipid film, which was then hydrated by 1 mL of ANTS/DPX solution. The mixture was left to hydrate for 1 h, after which it was subjected to 10 freeze-thaw cycles (using dry ice/acetone to freeze and warm water to thaw). The suspension was extruded 20 times through a polycarbonate membrane with 400 nm pore diameter. The excess dye was removed using Sephadex G-50 column as the eluent. The dye-filled vesicle fractions were diluted 200 times with Tris buffer. This suspension (90 μL) was subsequently mixed with polypeptide stock solutions (10 μL) at various pH (pH 7.4 or 4.0) on a 96-well black microplate (Greiner, flat bottom). Tris buffer (10 μL, pH 7.4 or 4.0) and Triton-X (0.1% v/v, 10 μL, pH 7.4 or 4.0) were employed as the negative and positive controls at corresponding pH, respectively. After 30 min, the fluorescence intensity in each well was recorded using the microplate reader with excitation and emission wavelengths of 380 and 520 nm, respectively. The percentage of leaked […] dye in each well was determined as follows: leakage (%)=[(F−F0)/(FTX−F0)]×100%, where F is the fluorescence intensity recorded in the well, F0 is the intensity in the negative control well, and FTX is the intensity in the positive control well.

H. pylori SS1 [4] = test: SEM analysis of bacterial morphology; assay type: cell-based, Helicobacter pylori; details: 30 min
Procedure: SEM analysis. SS1 bacterial cells grown in BB with the supplement of 10% FBS under pH 7.4 or 4.0 with or without polypeptides (2.2 μM) treatment were performed using a similar protocol as killing kinetics measurements but with a 30 min incubation time. All the samples were collected into a microfuge tube and pelleted at 4000 rpm for 5 min, and then washed twice with phosphate-buffered saline. Subsequently, bacteria were fixed with paraformaldehyde solution (4%) for 1 h before proceeding, followed by washing with DI water. Dehydration was performed with a series of graded ethanol solution (10%, 25%, 50%, 75%, 95%, and 100%). The dehydrated samples were dried under vacuum overnight before being mounted on carbon tape and coated with gold-platinum for imaging using a Hitachi S-4700 High Solution SEM (Japan).

H. pylori SS1 [5] = test: MIC of antibiotics against SS1; assay type: cell-based; details: Helicobacter pylori
[6] = test system: clinical isolated H. pylori stains J99, J99A-7, J99A-9, J99A-11, J99C-8, J99D-1; test: Growth (OD600) of clinical isolated H. pylori strains with antibiotics; assay type: cell-based, Helicobacter pylori; details: pH 7.4, 10% CO2, 37° C.
Procedure: FIG. 8. (A) The survival rate of H. pylori after incubation with amoxicillin (273.7 μM) and clarithromycin (133.7 μM) under pH 7.4 or 3.0 for 1 h. […] Concentrations of omeprazole, amoxicillin, and clarithromycin in OAC1 are 20.0 μM, 6.8 μM, and 1.9 μM, respectively; in OAC2 are 40.0 μM, 13.6 μM, and 3.8 μM, respectively; in OAC3 are 80.0 μM, 27.2 μM, and 7.6 μM, respectively. (C) The antibacterial activity of omeprazole (O) and a combination of amoxicillin and clarithromycin (AC) against SS1 at pH 3.0. O1, O2, O3 represents the concentration of omeprazole at 20.0 μM, 40.0 μM, and 80.0 μM, respectively. AC1, AC2, AC3 represents the concentration of amoxicillin and clarithromycin at 6.8 μM and 1.9 μM, 13.6 μM and 3.8 μM, 27.2 μM and 7.6 μM, respectively. The antibiotics were incubated with H. pylori strains for 1 h. The antibacterial activity of amoxicillin (D) and clarithromycin (E) against clinical isolated H. pylori stains, J99, J99A-7, J99A-9, J99A-11, J99C-8, J99D-1. The bacteria were incubated with antibiotics under pH 7.4 in the 10% CO2 incubator (37° C.), and the optical density at 600 nm (OD600) of bacteria were analyzed to determine the growth of bacteria. […] (G) The antibacterial activity of omeprazole (0) and a combination of amoxicillin and clarithromycin (AC) against J99D-1 under pH 3.0.

H. pylori SS1 [7] = test: Anti-H. pylori efficacy in vivo (infected C57BL/6J mice); parameters: species or system Helicobacter pylori; details: oral gavage once daily for 3 d, 2.6 μmol/kg
Procedure: Anti-H. pylori efficacy in vivo. […] For triple therapy, mice were first administered omeprazole (a proton pump inhibitor) through oral gavage at a dose of 400 μmol/kg, followed by a lag time of 30 min before administration of amoxicillin (68.0 μmol/kg) and clarithromycin (19.1 μmol/kg). PL2 and PDL2 in 5% (vol/vol) DMSO (both at 2.6 μmol/kg) were administered through oral gavage once daily for a consecutive 3 d. Water solution with 5% DMSO was served as negative control group. Forty-eight hours after the last administration, mice were killed and the stomach was removed from the abdominal cavity. The stomach was cut along the greater curvature, and the gastric content was removed and rinsed with PBS. The stomach sections were used for assessment of bacterial colonization. For bacterial colonization, a gastric tissue section was suspended in 1 mL PBS and homogenized for H. pylori recovery. The homogenate was serially diluted and spotted onto Columbia agar plate containing vancomycin (20 μg/mL), amphotericin (2 μg/mL), bacitracin (30 μg/mL) and nalidixic acid (10 μg/mL). The plates were then incubated at 37° C. under microaerobic conditions for 5 d, and bacterial colonies were enumerated and adjusted for dilutions.

Compound | secondary structure (CD), dependence on pH [1] | bactericidal activity against SS1 (H. pylori SS1 [2]; pH 3.0, 1 h incubation) | bactericidal activity against SS1 (H. pylori SS1 [2]; pH 7.4, 1 h incubation) | dye leakage from anionic liposomes ([3]; pH 4.0) | dye leakage from anionic liposomes ([3]; pH 7.4) | bacterial membrane/morphology by SEM (H. pylori SS1 [4]; pH 4.0, 2.2 μM) | bacterial membrane/morphology by SEM (H. pylori SS1 [4]; pH 7.4, 2.2 μM) | bacteria killed (H. pylori SS1 [2]; pH 7.4, 1 h incubation, 133.7 μM) [%] | MIC (H. pylori SS1 [5]) [µM] | susceptibility of J99A-7, J99A-11, J99C-8 and J99D-1 (growth, OD600) [6] | bacteria killed (H. pylori SS1 [2]; pH 7.4, 1 h incubation, 273.7 μM) [%] | decrease of bacterial burden in the stomach as compared with the control group (H. pylori SS1 [7])
(PHLG-MHH)20 [PL1] | stable helical conformation independent of pH change | killed H. pylori SS1 | killed H. pylori SS1 | notable dye leakage | notable dye leakage | membrane disruption | membrane disruption | – | – | – | – | –
CC[C@H]1OC(=O)[C@H](C)[C@@H](O[C@H]2C[C@@](C)(OC)[C@@H](O)[C@H](C)O2)[C@H](C)[C@@H](O[C@@H]2O[C@H](C)C[C@H](N(C)C)[C@H]2O)[C@](C)(OC)C[C@@H](C)C(=O)[C@H](C)[C@@H](O)[C@]1(C)O [clarithromycin, reference compound] | – | no bactericidal activity | – | – | – | – | – | ~60 | 0.07 | resistant | – | –
CC1(C)S[C@@H]2[C@H](NC(=O)[C@H](N)c3ccc(O)cc3)C(=O)N2[C@H]1C(=O)O [amoxicillin, reference compound] | – | no bactericidal activity | – | – | – | – | – | – | 0.13 | – | ~40 | –
(PDLGA)20-r-(PHDLG-MHH)25 [PDL2] | pH-independent non-helical conformation | unappreciable bactericidal activity | unappreciable bactericidal activity | unappreciable dye leakage | unappreciable dye leakage | did not affect the morphology of bacteria | did not affect the morphology of bacteria | – | – | – | – | no significant decrease of bacterial burden
